Results published in article PMC6093661, “Vitamin E hydroquinone is an endogenous regulator of ferroptosis via redox control of 15-lipoxygenase” (PLoS ONE, 2018).

Legend:
[1] = test system: Q7 cells; test: Intracellular quantification of αT, αTQ and αTHQ in Q7 cells (LC-MS/MS, succinate capping); conditions: all cases tested (basal, αT- or αTQ-supplemented)
[2] = biological target: T1, Soybean 15-lipoxygenase (SLO) (Glycine max, UniProt P08170); test: EPR spectroscopy of lipoxygenase active-site iron redox state; type: biochemical; conditions: SLO oxidised with lipid-OOH set to 100% Fe3+; addition of compound
T1 construct: purchased Cayman Chemical 60700
T1 sequence (P08170 1-839): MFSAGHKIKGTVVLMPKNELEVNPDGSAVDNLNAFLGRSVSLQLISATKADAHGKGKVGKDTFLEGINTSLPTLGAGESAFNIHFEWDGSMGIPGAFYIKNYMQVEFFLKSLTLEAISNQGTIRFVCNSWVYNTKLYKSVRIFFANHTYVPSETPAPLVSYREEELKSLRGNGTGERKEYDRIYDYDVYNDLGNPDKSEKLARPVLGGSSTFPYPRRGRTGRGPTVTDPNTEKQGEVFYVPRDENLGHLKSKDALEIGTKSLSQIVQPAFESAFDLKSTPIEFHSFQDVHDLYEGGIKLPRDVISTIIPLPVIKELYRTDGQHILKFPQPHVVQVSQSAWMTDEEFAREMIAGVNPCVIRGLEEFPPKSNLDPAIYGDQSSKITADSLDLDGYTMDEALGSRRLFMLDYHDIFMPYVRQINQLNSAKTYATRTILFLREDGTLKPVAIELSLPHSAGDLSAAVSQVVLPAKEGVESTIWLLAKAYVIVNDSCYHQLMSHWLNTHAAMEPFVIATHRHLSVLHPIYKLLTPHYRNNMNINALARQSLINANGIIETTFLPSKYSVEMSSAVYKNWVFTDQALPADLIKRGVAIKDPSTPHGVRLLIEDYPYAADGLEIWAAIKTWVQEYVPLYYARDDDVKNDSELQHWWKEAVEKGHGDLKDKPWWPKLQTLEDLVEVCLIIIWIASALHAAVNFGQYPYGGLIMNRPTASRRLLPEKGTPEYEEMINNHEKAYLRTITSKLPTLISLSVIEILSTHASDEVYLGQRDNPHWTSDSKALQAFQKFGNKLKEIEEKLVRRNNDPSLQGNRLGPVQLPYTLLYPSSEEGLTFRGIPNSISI
Experimental: Lipoxygenase: Soybean 15-lipoxygenase (SLO) was buffer exchanged into 50 mM borate buffer, pH 9.0 containing 10% (v/v) glycerol. The resulting protein solution was concentrated to approximately 100 μM, based upon the supplier’s activity per mL and specific activity per mg. The active-site iron oxidation state was further evaluated by EPR under three treatment conditions: 1) No treatment, 2) oxidation with 3-fold molar excess of lipid hydroperoxide (final concentration of 300 μM) from an ethanol stock, 3) oxidation with 3-fold molar excess of lipid hydroperoxide followed by 10-fold molar excess of αTHQ or αT3HQ (final concentration of 1 mM) from a DMSO stock. All samples contained the same final concentrations of ethanol and DMSO as sample 3. The EPR spectra of buffer alone were also evaluated to allow for baseline subtraction.
CW-EPR spectra were recorded at 150 K on a Bruker ELEXYS E540 spectrometer fitted with an X-band microwave bridge, a Super High Sensitivity Resonator (SHQ), and a Nitrogen VT apparatus. The spectra were recorded at 9.43 GHz with 1.002 mW microwave power, 10 G modulation amplitude, 100 kHz modulation frequency, 25 scans.

[3] = biological target: T2, Rabbit 15-lipoxygenase (rLOX15) (Oryctolagus cuniculus, UniProt P12530); test: Lipoxygenase enzyme inhibition assay; type: biochemical; conditions: rabbit 15-LO
T2 construct: purchased Enzo Life Sciences, Inc. BML-PL015
T2 sequence (P12530 1-663): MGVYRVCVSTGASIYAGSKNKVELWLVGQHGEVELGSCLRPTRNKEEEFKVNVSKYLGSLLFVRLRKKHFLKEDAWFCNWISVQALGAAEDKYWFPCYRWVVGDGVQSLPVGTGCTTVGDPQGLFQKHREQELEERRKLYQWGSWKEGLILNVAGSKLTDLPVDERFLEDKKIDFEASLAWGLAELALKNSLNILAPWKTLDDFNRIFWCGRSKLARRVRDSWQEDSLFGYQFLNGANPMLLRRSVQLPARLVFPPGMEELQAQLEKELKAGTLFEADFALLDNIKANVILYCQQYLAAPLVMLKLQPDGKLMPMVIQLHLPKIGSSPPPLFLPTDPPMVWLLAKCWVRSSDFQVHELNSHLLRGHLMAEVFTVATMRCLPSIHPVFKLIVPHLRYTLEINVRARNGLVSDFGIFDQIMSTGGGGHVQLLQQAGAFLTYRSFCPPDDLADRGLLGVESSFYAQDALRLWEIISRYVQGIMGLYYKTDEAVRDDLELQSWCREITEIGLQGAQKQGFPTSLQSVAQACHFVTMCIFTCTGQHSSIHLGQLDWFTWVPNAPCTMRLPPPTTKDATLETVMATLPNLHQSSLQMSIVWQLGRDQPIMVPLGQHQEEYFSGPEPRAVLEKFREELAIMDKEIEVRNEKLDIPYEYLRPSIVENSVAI
Experimental: Rabbit 15-lipoxygenase (rLOX15, part number BML-PL015, lot number 3-P9009a) was obtained from Enzo Life Sciences, Inc. Sodium cholate (part number C6445, lot number 094K0209) was obtained from Sigma-Aldrich.
Stock solutions of test compounds were prepared in DMSO and then diluted to final assay concentrations in cholate mix such that final cholate and DMSO concentrations were maintained at 0.2%.

[4] = test system: Mouse striatal Q7 cells (STHdhQ7/Q7); test: RSL3 ferroptosis cell rescue (cellular survival assay, CellTiter-Glo)
[5] = ORAC (oxygen radical absorbance capacity) assay; conditions: average of 25 and 12.5 μM compound; mean, SEM, n = 6
Experimental: ORAC assay kits were purchased from Cell Biolabs. Assays were performed per the manufacturer’s instructions for lipophilic samples with minor modifications. DMSO stock solutions of compounds were diluted in an anaerobic glovebox to final concentrations of 25 and 12.5 μM in triplicate. A standard curve of Trolox® between 0–100 μM in triplicate per concentration was also generated on each assay plate. Diluted compounds and standards were removed from the glovebox and reactions initiated by addition of aerobic fluorescein reagent and radical initiator. Fluorescein fluorescence was monitored at excitation wavelength of 480 nm and emission wavelength of 520 nm every minute for one hour. AUC analysis was performed as described in the kit protocol. The “Trolox equivalents” at each concentration of test compound were calculated and the average Trolox equivalents at the two compound concentrations are presented. The errors were determined by propagating errors from the SEMs of the triplicate determinations to the averages across the two triplicate determinations.

[6] = Radical-trapping antioxidant (RTA) activity assay in DOPC liposomes; conditions: 50 μM compound, 2 mol% in DOPC liposomes, BODIPY 581/591 C11 quenching; liposome-only control = 1
[7] = test system: Q7 cells; test: Cellular lipid oxidation assay (BODIPY 581/591 C11, RSL3-treated Q7 cells); type: cell-based, mouse; conditions: RSL3 2 μM, 6-point titration, time-lapse microscopy
Experimental: Ferroptosis was induced by RSL3 (2 μM final concentration) in Q7 cells as described above. The protective activity of co-treated compounds was assessed also as described above. The rate of cellular lipid oxidation after GPX4 inhibition was assessed by monitoring the time-dependent changes in green fluorescence of cells pre-labeled with BODIPY™ 581/591 C11 dye (5 μM, 30-minute labeling period; Thermo Fisher/Invitrogen) using the IncuCyte S3 live-cell imaging apparatus (Sartorius) using a 10x objective. Cells (three images per field; at least three replicate wells per condition) were imaged once hourly for up to 18 hours after compound and RSL3 addition. Quantification of cell images was performed using the IncuCyte Zoom software using the Basic Analyzer tool which utilized an algorithm that calculated the total green-positive area per well where “green-positive” was defined as 1.45 times the local background-subtracted fluorescent signal. After a 2-3-hour lag period post-RSL3 treatment, the cellular green fluorescence signal began increasing. The rate of change in total green-positive area per well from 3–9 hours post-compound treatment was calculated, then expressed relative to that observed in the RSL3-only control treatment group, which was defined as 100%.

## Cc1c(C)c(O)c(CC[C@](C)(O)CCC[C@H](C)CCC[C@H](C)CCCC(C)C)c(C)c1O [αTHQ, α-tocopherol hydroquinone]
[1]
  cellular αTHQ exposures exceed those of αTQ: 3- to 4 fold
[2]
  decrease in the SLO-Fe3+ signal: 50%
[3]
  15-LO inhibitory potency fold compared with αTQ, αT, or αTCC: > 40 fold
[3]; 50 μM arachidonic acid substrate
  IC50: 2450 nM
[3]; compound 100 μM, read-out: 15-Lipoxygenase Enzyme Assay % activity at 100 μM
  activity at 100 µM: 15%
[4]; Mus musculus, 18 h, read-out: RSL3 Ferroptosis Cell Assay Average EC50, Q7 cells, RSL3 2 μM, 18 h co-treatment, CellTiter-Glo 2.0
  EC50: 90 ± 30 nM
[4]; Q7 cells, RSL3, EC50 ratio vs αT
  fold more potent than αT in preventing ferroptotic cell death: 57 fold
[5]
  ORAC Antioxidant Activity Assay Trolox Equiv.: 0.106 Trolox Equiv.
[6]
  Radical Trapping Assay AUC (Rel. Control): 1.855
[7]
  effect on RSL3-induced lipid oxidation (BODIPY 581/591 C11 oxidation): prevented
